Results on 6 compounds are retold here after US20250312303A1, “ANTICANCER AGENT” (AGC Inc., priority 2022, published 2025).

In test [1] the test system is HeLa cells. Description: SRB assay, relative cell proliferation rate of HeLa cells. The test is classed as cell-based. The text has this:
(§1) HeLa cells and PANC-1 cells were used as the cancer cells. Both these cells were obtained from ATCC. Further, NHDF cells obtained from Lonza Group Ltd. were used as control non-cancer cells. The culture mediums used were Dulbecco's Modified Eagle Medium (D-MEM, manufactured by FUJIFILM Wako Pure Chemical Corporation) to which 10% FBS had been added (hereinafter also referred to as the “normal medium”), a medium prepared by removing leucine from D-MEM and adding 10% FBS (hereinafter also referred to as the “Leu-removed medium”), and a medium prepared by removing valine from D-MEM and adding 10% FBS (hereinafter also referred to as the “Val-removed medium”).
(§2) The culture cells were inoculated into a 96-well culture plate at a concentration of 3×10^3 cells/well, and following adhesion, were cultured for 24, 48 or 72 hours in the normal medium, the Leu-removed medium or Val-removed medium, or a medium prepared by adding the fluorine-containing amino acid to the Leu-removed medium or Val-removed medium in an amount sufficient to achieve a final concentration of 0.8 mM. Following culturing, the cell proliferation rate was measured by SRB assay. As a control, the cell proliferation rate was measured in a similar manner for cells having a culture time of 0 hours.
(§3) The SRB assays were conducted in the following manner. Following cell culturing, the medium was removed, and 10% (wt/vol) of trichloroacetic acid was added to fix the cells. Subsequently, the fixed cells were washed three times with tap water, and then stained by adding a solution containing 0.4% (wt/vol) of sulforhodamine B dissolved in 1% acetic acid. Following subsequent washing three times with a 1% acetic acid solution, a 10 mM Tris solution was added, and the light absorbance at 540 nm was measured. The 540 nm absorbance value for each sample was used to indicate the cell quantity, and for each sample, the relative cell proliferation rate (%) at a culture time of X hours was determined using the formula below.
(§4) SRB assays were conducted in the same manner as Example 1 with the exceptions of using a medium prepared by removing glutamine from D-MEM and adding 10% FBS (hereinafter also referred to as the “Gln-removed medium”) as the culture medium instead of the Leu-removed medium, using monofluoroglutamine ((2S,4S)Gln(1F) or (2S,4R)Gln(1F)) as the fluorine-containing amino acid, and altering the amount of monofluoroglutamine added to the Gln-removed medium to an amount sufficient to achieve a final concentration of 4 mM.
(§5) SRB assays were conducted in the same manner as Example 1 with the exceptions of using the Gln-removed medium as the culture medium instead of the Leu-removed medium, using difluoroglutamine as the fluorine-containing amino acid, and altering the amount of difluoroglutamine added to the Gln-removed medium to an amount sufficient to achieve a final concentration of 4 mM.
On the technique in general: In SRB staining, fixed cells bind dye roughly in proportion to their protein.

The test system of the next test is PANC-1 cells. The experiment in a line: SRB assay, relative cell proliferation rate of PANC-1 cells. The test is classed as cell-based.
Source text: as §1, §2, §3, §4, §5

A further test has as its system NHDF cells. The experiment in a line: SRB assay, relative cell proliferation rate of NHDF cells (control non-cancer cells). The test is classed as cell-based.
Source text: as §1, §2, §3, §4

Test [2] has as its system HeLa cells. Description: Tumor volume of subcutaneously transplanted HeLa cells in SCID/SCID mice. The test is classed as in vivo. Particulars: for Tumor volume: 5 mg/kg intraperitoneally every day for two weeks starting day 7. As to the method: First, 0.1 mL samples of an HeLa cell solution with a concentration of 1.0×10^7 cells/mL were transplanted beneath the skin of SCID/SCID (immunodeficient) mice. Starting 7 days after the HeLa cell transplantation, PBS (control group), leucine (5 mg/kg mouse bodyweight) or trifluoroleucine (5 mg/kg mouse bodyweight) was administered intraperitoneally every day for two weeks. The growth of the tumor tissue was observed over time from the time of HeLa transplantation, and the tumor volume (mm^3) was calculated. The tumor volume (mm^3) was calculated from the major diameter (mm) of the tumor tissue and the minor diameter (mm) of the tumor tissue using the formula shown below.
With the exceptions of using monofluoroisoleucine or 5-fluoro-5-methyl-norleucine (CAS RN: 1361228-49-0) instead of the trifluoroleucine, and starting the administration of the PBS, 5-fluoro-5-methyl-norleucine or monofluoroisoleucine 11 days after rather than 7 days after the HeLa cell transplantation, the same procedure as (1) above was used to measure the volume (mm^3) of the tumor formed by the subcutaneously transplanted HeLa cells over time.
(§6) First, 0.1 mL samples of an HeLa cell solution with a concentration of 1.0×10^7 cells/mL were transplanted beneath the skin of SCID/SCID (immunodeficient) mice. Starting 7 days after the HeLa cell transplantation, PBS (control group), glutamine (Gln) (5 mg/kg mouse bodyweight), (2S,4S)Gln(1F) (5 mg/kg mouse bodyweight) or (2S,4R)Gln(1F) (5 mg/kg mouse bodyweight) was administered intraperitoneally every day for two weeks. The growth of the tumor tissue was observed over time from the time of HeLa cell transplantation, and the tumor volume (mm^3) was calculated. The tumor volume (mm^3) was determined in the same manner as that described in Example 2.
as §6, with “mouse bodyweight), or di-F-Gln(F)” for “mouse bodyweight), (2S,4S)Gln(1F) (5 mg/kg mouse bodyweight) or (2S,4R)Gln(1F)”, “bodyweight), or di-F-Gln(F) (5 mg/kg” for “bodyweight) or (2S,4R)Gln(1F) (5 mg/kg”, “of HeLa transplantation, and” for “of HeLa cell transplantation, and”

Where [3] appears, read: Val-removed medium + 0.8 mM amino acid, culture time 24 h.
The mark [4] stands for this setting: Val-removed medium + 0.8 mM amino acid, culture time 48 h.
Where [5] appears, read: Val-removed medium + 0.8 mM amino acid, culture time 72 h.
Where [6] appears, read: Val-removed medium + 0.8 mM amino acid, culture time 72 h, listed as hexafluorovaline.
The mark [7] stands for this setting: Gln-removed medium + 4 mM amino acid, culture time 24 h.
[8] abbreviates: Gln-removed medium + 4 mM amino acid, culture time 48 h.
[9] abbreviates: Gln-removed medium + 4 mM amino acid, culture time 72 h.
Where [10] appears, read: Leu-removed medium + 0.8 mM amino acid, culture time 24 h.
Where [11] appears, read: Leu-removed medium + 0.8 mM amino acid, culture time 48 h.
The mark [12] stands for this setting: Leu-removed medium + 0.8 mM amino acid, culture time 72 h.
Setting [13] is: Leu-removed medium + 0.8 mM amino acid, culture time 72 h, hydrochloride.
The mark [14] stands for this setting: Val-removed medium + 0.8 mM amino acid, culture time 72 h, listed as monofluorovaline.

Turning to `NC(C(=O)O)C(C(F)(F)F)C(F)(F)F` (racemic) [Val(6F), 4,4,4,4′,4′,4′-hexafluoro-DL-valine], the “Relative cell proliferation rate of HeLa cells” value is given as 88.1% in the test on HeLa cells [1] (setting [3]), 93.7% in the test with HeLa cells [1] (setting [4]), 67.6% in the test on HeLa cells [1] (setting [5]) and “less than 100%” in the test with HeLa cells [1] (setting [6]). For the same compound, the “Relative cell proliferation rate of PANC-1 cells” value worked out at 104.3% with PANC-1 cells (setting [3]), 133.4% in the test with PANC-1 cells (setting [4]) and 141.3% with PANC-1 cells (setting [5]). Also, the “Relative cell proliferation rate of NHDF cells” value is listed as 109.8% in the test with NHDF cells (setting [3]), 104.4% in the test on NHDF cells (setting [4]), 125.2% in the test with NHDF cells (setting [5]) and “lower than the relative cell proliferation rate observed for the Val-removed medium” in the test on NHDF cells (setting [6]).

`NC(=O)[C@@H](F)C[C@H](N)C(=O)O` [(2S,4S)-Gln(1F)]: the “Relative cell proliferation rate of HeLa cells” value in the test on HeLa cells [1] (setting [7]) amounted to 29.2%; with HeLa cells [1] (setting [8]), 32.1%; with HeLa cells [1] (setting [9]), 25.0%. Also, the “Relative cell proliferation rate of PANC-1 cells” value with PANC-1 cells (setting [7]) is given as 31.5%; in the test with PANC-1 cells (setting [8]) it was 27.3%; with PANC-1 cells (setting [9]), 25.7%. For the same compound, the “Relative cell proliferation rate of NHDF cells” value with NHDF cells (setting [7]) stood at 157.4%; in the test on NHDF cells (setting [8]), 129.4%; in the test on NHDF cells (setting [9]) it was 82.9%. In addition, the Tumor volume with HeLa cells [2] (7 days since HeLa cell transplantation) was 72.1 mm^3; in the test with HeLa cells [2] (9 days since HeLa cell transplantation), 96.9 mm^3; with HeLa cells [2] (11 days since HeLa cell transplantation) it was 149.0 mm^3; with HeLa cells [2] (14 days since HeLa cell transplantation) it was 207.1 mm^3; in the test on HeLa cells [2] (16 days since HeLa cell transplantation), 242.3 mm^3; with HeLa cells [2] (18 days since HeLa cell transplantation), 357.2 mm^3. In the test on HeLa cells [2] (21 days since HeLa cell transplantation), this compound had a Tumor volume of 439.9 mm^3. The “Increase in the size of the tumor tissue compared with the control group” value in the test with HeLa cells [2] (HeLa tumor-bearing SCID/SCID mice, 5 mg/kg intraperitoneally every day for two weeks, result in words) is reported as “dramatically inhibited”.

Consider `CC(C)(F)C[C@H](N)C(=O)O` [Leu(1F), 4-fluoro-L-leucine], for which the “Relative cell proliferation rate of HeLa cells” value came out at 82.3% with HeLa cells [1] (setting [10]), 90.6% in the test with HeLa cells [1] (setting [11]) and 82.0% in the test with HeLa cells [1] (setting [12]). The entries for the “Relative cell proliferation rate of PANC-1 cells” value with PANC-1 cells (setting [10]), in the test with PANC-1 cells (setting [11]) and in the test on PANC-1 cells (setting [12]) were 67.6%, 47.9% and 40.9%, respectively. Moreover, the “Relative cell proliferation rate of NHDF cells” value is given as 92.0% in the test on NHDF cells (setting [10]); 66.4% in the test with NHDF cells (setting [11]); 87.7% in the test with NHDF cells (setting [12]); “less than 100%” in the test on NHDF cells (Leu-removed medium + 0.8 mM amino acid, culture time 72 h, listed as monofluoroleucine).

`CC(C(N)C(=O)O)C(F)(F)F` (centres unmarked) [Val(3F), 2-amino-3-methyl-4,4,4-trifluorobutanoic acid]: the “Relative cell proliferation rate of HeLa cells” value with HeLa cells [1] (setting [3]) is reported as 151.7%; with HeLa cells [1] (setting [4]), 287.6%; in the test with HeLa cells [1] (setting [5]) it was 494.3%. Moreover, the “Relative cell proliferation rate of PANC-1 cells” value was 108.9% in the test on PANC-1 cells (setting [3]), 161.2% with PANC-1 cells (setting [4]) and 253.7% with PANC-1 cells (setting [5]). For the same compound, the “Relative cell proliferation rate of NHDF cells” value in the test on NHDF cells (setting [3]) was determined as 83.0%; with NHDF cells (setting [4]), 104.6%; in the test on NHDF cells (setting [5]), 116.6%.

With `Cl.NC(CC(C(F)(F)F)C(F)(F)F)C(=O)O` (centres unmarked) [Leu(6F), 2-amino-5,5,5-trifluoro-4-(trifluoromethyl) pentanoic acid hydrochloride], the “Relative cell proliferation rate of HeLa cells” value in the test on HeLa cells [1] (setting [10]) was 137.3%; in the test with HeLa cells [1] (setting [11]), 264.0%; in the test with HeLa cells [1] (setting [13]), 472.5%. Moreover, the “Relative cell proliferation rate of PANC-1 cells” value in the test on PANC-1 cells (setting [10]) is on record as 75.5%; in the test with PANC-1 cells (setting [11]) it was 96.5%; in the test on PANC-1 cells (setting [13]), 193.6%; in the test with PANC-1 cells (Leu-removed medium + 0.8 mM amino acid, culture time 72 h, listed as hexafluoroleucine, hydrochloride), ~200%. Further, the “Relative cell proliferation rate of NHDF cells” value in the test with NHDF cells (setting [10]) amounted to 104.7%; with NHDF cells (setting [11]), 130.1%; in the test with NHDF cells (setting [13]), 179.1%.

`CC(C)(F)C(N)C(=O)O` (racemic) [Val(1F), 3-fluoro-DL-valine]: the results for the “Relative cell proliferation rate of HeLa cells” value in the test with HeLa cells [1] (setting [3]), in the test on HeLa cells [1] (setting [4]) and in the test with HeLa cells [1] (setting [5]) were 72.83%, 118.0% and 273.6%, respectively. Further, the “Relative cell proliferation rate of PANC-1 cells” value in the test on PANC-1 cells (setting [3]) is recorded as 88.8%; with PANC-1 cells (setting [4]), 103.8%; in the test with PANC-1 cells (setting [5]), 105.1%; in the test with PANC-1 cells (setting [14]), “about 100%”. Moreover, the “Relative cell proliferation rate of NHDF cells” value with NHDF cells (setting [3]) is given as 91.5%; in the test with NHDF cells (setting [4]) it was 70.4%; in the test with NHDF cells (setting [5]), 110.5%; with NHDF cells (setting [14]), “lower than the relative cell proliferation rate observed for the Val-removed medium”.
